From patent publication US7572819B2, “Compounds which potentiate glutamate receptor and uses thereof in medicine” (Glaxo Group Limited, priority 2004, dated 2009) come the findings set out here.

The target in the experiment is T1, human GluR2 flip (unedited) AMPA receptor subunit (Homo sapiens, UniProt P42262).
T1 construct: expressed in transfected cells; host or cells: HEK 293 cells, stably expressing or transiently transfected
The experiment in a line: Calcium influx fluorescence assay (FLUO4, FLIPR). Format: cell-based. Particulars: HEK 293 cells expressing human GluR2 flip (unedited); 100 μM glutamate; peak fluorescence. As for the experimental part: The ability of the compounds of the invention to potentiate glutamate receptor-mediated response were determined a) by using fluorescent calcium-indicator dyes such as FLUO4 and additionally for some example compounds, b) by measuring glutamate-evoked current recorded from human GluR2 flip unedited HEK293 cells. • a) Calcium Influx Fluorescence Assay
384 well plates were prepared containing confluent monolayer of HEK 293 cells either stably expressing or transiently transfected with human GluR2 flip (unedited) AMPA receptor subunit. These cells form functional homotetrameric AMPA receptors. […]
The cell plate was then transferred into a fluorescence imaging plate based reader [such as the FLIPR384 (Molecular Devices)]. A baseline fluorescence reading was taken over a 10 to 240 second period, and then 10 μL from each plate containing a compound of the invention made up in standard buffer solution (in a concentration range from 100 μM to 10 pM) was added (to give a final concentration in the range 30 μM to 3 pM). The fluorescence was read over 5 minute period. […] The fluoresecence was then read over a 4 minute period. The activities of the compounds of the invention and reference compounds were determined by measuring peak fluorescence after the last addition. […]

T1 sequence (P42262 25-883 isoform P42262-2 limits assumed): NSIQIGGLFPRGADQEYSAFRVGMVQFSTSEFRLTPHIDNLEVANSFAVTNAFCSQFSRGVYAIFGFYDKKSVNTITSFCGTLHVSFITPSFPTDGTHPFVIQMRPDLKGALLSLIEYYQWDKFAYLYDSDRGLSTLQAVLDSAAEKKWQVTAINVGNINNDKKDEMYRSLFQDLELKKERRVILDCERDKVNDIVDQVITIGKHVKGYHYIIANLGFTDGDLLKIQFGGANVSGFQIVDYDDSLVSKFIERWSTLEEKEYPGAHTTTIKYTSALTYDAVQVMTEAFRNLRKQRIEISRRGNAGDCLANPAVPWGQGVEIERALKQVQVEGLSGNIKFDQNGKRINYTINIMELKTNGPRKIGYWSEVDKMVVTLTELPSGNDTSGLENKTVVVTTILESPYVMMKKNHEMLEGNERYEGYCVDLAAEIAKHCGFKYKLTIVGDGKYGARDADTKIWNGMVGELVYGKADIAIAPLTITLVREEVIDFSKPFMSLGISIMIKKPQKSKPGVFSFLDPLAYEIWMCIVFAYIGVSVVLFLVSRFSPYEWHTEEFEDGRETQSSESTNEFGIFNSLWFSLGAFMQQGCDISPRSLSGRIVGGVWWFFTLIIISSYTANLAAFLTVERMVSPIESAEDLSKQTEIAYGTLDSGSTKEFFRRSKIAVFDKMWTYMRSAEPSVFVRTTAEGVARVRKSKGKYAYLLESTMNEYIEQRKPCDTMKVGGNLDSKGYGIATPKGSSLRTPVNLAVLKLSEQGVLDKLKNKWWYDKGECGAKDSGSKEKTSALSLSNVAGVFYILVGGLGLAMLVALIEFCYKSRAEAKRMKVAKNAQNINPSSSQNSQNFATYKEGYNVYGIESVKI

For the molecule `CC(C)S(=O)(=O)NC1Cc2ccc(-c3ccsc3)cc2C1` (stereo not shown) [Example 4, N-[5-(3-thienyl)-2,3-dihydro-1H-inden-2-yl]-2-propanesulfonamide], the EC50 was 10 µM.
